Reference: patent US20250283113A1, “COMPOSITIONS AND METHODS FOR INCREASING DELETION EFFICIENCY OF NUCLEIC ACID SEGMENT BY MODULATION OF NHEJ REPAIR PATHWAY” (GenKOre, Inc., priority 2022, published 2025)

Key:
XRCC4 [1] = assay: qRT-PCR of shRNA-mediated inhibition of NHEJ component gene expression (Example 3); type: cell-based, human; settings: AC16 cells, 5 μg shRNA plasmid, 3 days after transfection, FIG. 6
Method: (§1) Purification of total RNA was performed, and reverse transcription of total 1 μg RNA was performed with Superscript IV reverse transcriptase (INVITROGEN) using random hexamers. For real-time PCR, 1/20 of the RT product was amplified with the KAPA SYBR FAST qPCR kit (KAPA BIOSYSTEM, Wilmington, MA, USA) using the real-time cycler Quantstudio (THERMO FISHER SCIENTIFIC). The relative amount of mRNA transcripts was measured by the […]. GAPDH and 18s rRNA were used as endogenous controls.
(§2) 5 μg of plasmid vector encoding shRNA was prepared using All-in-one vector (Biofact), transfected into AC16 cells, and harvested 3 days after transfection. Then, mRNA expression of each NHEJ component gene was measured by qRT-PCR. […] The sequences of sense strands of the shRNAs used are described in Table 9.

XRCC4 [2] = assay: Western blot of shRNA-mediated inhibition of NHEJ component gene expression (Example 4); type: cell-based, human; settings: AC16 cells, conditions as Example 3, FIG. 7
Method: (§3) Cell extracts were prepared by scraping cells with 60 to 80 μl of RIPA Lysis and Extraction Buffer (THERMOFISHER, 89900) containing protease inhibitor cocktail (ROCHE, 11836153001) at 4° C. and kept on ice for 10 minutes. The concentration of the cleared lysate was measured by Bradford assay (BIO-RAD), in which 20 to 65 μg of protein lysate, depending on the target protein, was loaded onto Mini-PROTEAN® TGX™ Precast Protein Gels (BIO-RAD), electrophoresed, and transferred to PVDF membranes using the Trans-Blot Turbo Transfer System (BIO-RAD). The membrane was incubated at room temperature for 1 hour in a blocking solution containing 5% non-fat dry milk in TBS-T and then incubated at 4° C. overnight with primary antibodies in TBS-T. After incubation with primary antibodies, the membrane was washed four times with TBS-T and then incubated at room temperature for 1 hour in a blocking solution containing anti-rabbit or anti-mouse immunoglobulin conjugated with HRP. The membrane was additionally washed four times with TBS-T and specific protein complexes were visualized with ECL prime (CYTIVA). Antibodies used were against KU70 (CST, 4588S), DNA ligase IV (CST, 146495), XLF (CST, 2854S), Artemis (CST, 13381), GAPDH (CST, 2118L), and XRCC4 (THERMO, MA5-24383).
(§4) shRNA-mediated inhibition of gene expression was analyzed by Western blot analysis. The experimental conditions were the same as in Example 3. […] As a result, the Western blot results were consistent with the qRT-PCR results.

Dclre1c [3] = assay: qRT-PCR of murine Dclre1c mRNA after shRNA treatment in Hepa-1c1c7 cells (Example 11); type: cell-based, mouse; settings: shRNA under U6 promoter, FIG. 14
Method: as §1
shRNAs for the Dclre1c gene encoding mouse Artemis protein were selected in Hepa-1c1c7 cells. The shRNAs, which are expressed under the U6 promoter, were generated, and qRT-PCR was performed to measure of the Dclre1c mRNA levels. […] The thus selected shRNAs can be used for in vivo studies using mouse models (for example, DMD mouse model with endogenous murine Dclre1c gene).

Dystrophin Exon 51, E51 [4] = assay: Quantification of large-scale deletion of E51 by qPCR in HEK293T cells (Example 7); type: cell-based, human; settings: 3 days, shRNA + UnCas12f1 + gRNA pair F142/R52, qPCR, compared among shDCLRE1C-2, -3, -5, FIG. 10A
Method: Quantitative real-time PCR was used to quantify genomic DNA. Primer sequences were designed for each of the E51 internal regions where large-scale deletion occurs. For qPCR, 20 ng of gDNA was amplified with the KAPA SYBR FAST qPCR kit (KAPA BIOSYSTEM, Wilmington, MA, USA) using the real-time cycler Quantstudio (THERMO FISHER SCIENTIFIC).
(§5) The efficiency of large-scale deletion was analyzed by qPCR 3 days after treatment of HEK293T cells with the selected shRNA (shDCLRE1C-2, -3, or -5)+UnCas12f1 and a pair of gRNA (F142/R52), and the results are shown in FIG. 10A.
For shDCLRE1C and shXRCC6 among the shRNAs selected in Example 4, experiments were conducted in the same manner as in Example 7.1 using the two shRNAs alone, in combination, or one shRNA thereof in two copies, to analyze the efficiency of large-scale deletion of E51.

DCLRE1C [5] = assay: DCLRE1C mRNA level by qPCR in HEK293T cells (Example 7.1); type: cell-based, human; settings: 3 days, compared among shDCLRE1C-2, -3, -5, FIG. 10B
Method: as §1, §5

Dystrophin Exon 51, E51 [6] = assay: Whole genome sequencing (WGS) analysis of E51 deletion efficiency (Example 8); type: cell-based, human; settings: HEK293T cells, UnCas12f1 + gRNA pair F142/R52, 5 days after transfection, shRNA in two copies (shDC-3×2), FIG. 11
Method: HEK293T cells were transfected with UnCas12f1, a pair of gRNA (F142/R52), and shRNA, and then harvested 5 days after transfection. Genomic DNA was purified using a gDNA prep kit (Maxwell® RSC Cultured Cells DNA, PROMEGA, AS1620). 400 to 500 ng of genomic DNA was fragmented, and libraries were prepared using the MGIEasy FS DNA Library Prep. Kit (MGI Tech) according to the manufacturer's instructions. The libraries were then subjected to WGS using DNBSEQ-T7 (MGI Tech). Sequence reads were mapped to the human genome reference standard, GRCh38. Large-scale deletion efficiency was analyzed by counting reads mapped to the deleted region between a pair of gRNAs, and counts per million (CPM) was calculated. The percentage of deletion was calculated based on the difference in CPM between the sample and the control.
HEK293T cells were transfected with UnCas12f1, a pair of gRNA (F142/R52), and shRNA, and then harvested 5 days after transfection. gDNA was prepared therefrom for WGS that is performed to verify large-scale deletion efficiency. To compare the degree of deletion between the two gRNAs which is induced at both sides of E51, reads were mapped to the reference standard sequence and counting was performed within the deleted region. The data were presented as CPM (Count Per Million) along with each read count. […]

DCLRE1C [7] = assay: qRT-PCR of mRNA expression in AC16 cells transfected with candidate shRNAs (Example 12.1); type: cell-based, human; settings: 5 ug, 3 days, among the five shDCLRE1C shRNAs, FIG. 17
Method: as §1
Candidate shRNAs for six genes known to be involved in the NHEJ repair pathway were transfected into previously prepared AC16 cells at a dose of 5 ug, and incubation was performed for 3 days. Then, the cells were harvested and qRT-PCR was used to measure the mRNA expression levels of the genes. The results are shown in FIG. 15 (ATM1 and XRCC4), FIG. 16 (XLF-1 and XRCC6), and FIG. 17 (LIG4 and DCLRE1C). From the results, the optimal shRNAs were selected. Scrambled indicates the control shRNA.

DCLRE1C [8] = assay: qRT-PCR of shRNA-mediated inhibition of NHEJ component gene expression (Example 3); type: cell-based, human; settings: AC16 cells, 5 μg shRNA plasmid, 3 days after transfection, FIG. 6
Method: as §1, §2

Artemis = assay: Western blot of shRNA-mediated inhibition of NHEJ component gene expression (Example 4); type: cell-based, human; settings: AC16 cells, conditions as Example 3, FIG. 7
Method: as §3, §4

Dystrophin Exon 51, E51 [9] = assay: E51 deletion by UnCas12f1 with shRNA, agarose gel of PCR-amplified E51 region and band intensity analysis (Examples 5, 6); type: cell-based, human; settings: HEK 293T cells, Image J analysis of FIG. 8, comparison between shRNAs, FIG. 9
Method: A pair of guide RNAs for the targets F142 and R52 as shown in Table 14 was used to induce E51 deletion. In order to accurately find the optimal shRNA for a large-scale deletion strategy, comparison of the deletion efficiency altered by the selected shRNAs was conducted in HEK 293T cells. The E51 deletion efficiency was measured on an agarose gel in which the PCR-amplified E51 region was decomposed. From the results, it can be seen that treatment with shRNA increases the E51 deletion efficiency caused by UnCas12f1 .
To compare the large-scale deletion efficiency between various treatments with shRNA, intensity analysis was conducted on the deletion band (Del) and the non-deletion band (WT) in FIG. 8, and the relative values were calculated using Image J software.

XRCC6 = assay: qRT-PCR of shRNA-mediated inhibition of NHEJ component gene expression (Example 3); type: cell-based, human; settings: AC16 cells, 5 μg shRNA plasmid, 3 days after transfection, FIG. 6
Method: as §1, §2

KU70 = assay: Western blot of shRNA-mediated inhibition of NHEJ component gene expression (Example 4); type: cell-based, human; settings: AC16 cells, conditions as Example 3, FIG. 7
Method: as §3, §4

XLF [10] = assay: qRT-PCR of shRNA-mediated inhibition of NHEJ component gene expression (Example 3); type: cell-based, human; settings: AC16 cells, 5 μg shRNA plasmid, 3 days after transfection, FIG. 6
Method: as §1, §2

XLF [11] = assay: Western blot of shRNA-mediated inhibition of NHEJ component gene expression (Example 4); type: cell-based, human; settings: AC16 cells, conditions as Example 3, FIG. 7
Method: as §3, §4

LIG4 = assay: qRT-PCR of shRNA-mediated inhibition of NHEJ component gene expression (Example 3); type: cell-based, human; settings: AC16 cells, 5 μg shRNA plasmid, 3 days after transfection, FIG. 6
Method: as §1, §2

DNA ligase IV = assay: Western blot of shRNA-mediated inhibition of NHEJ component gene expression (Example 4); type: cell-based, human; settings: AC16 cells, conditions as Example 3, FIG. 7
Method: as §3, §4

ATM1 [12] = assay: qRT-PCR of shRNA-mediated inhibition of NHEJ component gene expression (Example 3); type: cell-based, human; settings: AC16 cells, 5 μg shRNA plasmid, 3 days after transfection, FIG. 6
Method: as §1, §2

ATM1 [13] = assay: Western blot of shRNA-mediated inhibition of NHEJ component gene expression (Example 4); type: cell-based, human; settings: AC16 cells, conditions as Example 3, FIG. 7

For “GAAUCCACCUUUGUUUCUGA (sense GAAUCCACCUUGUUUCUGA; part of shRNA hairpin, further chemistry not given here) [XRCC4-3]”, the “mRNA expression of NHEJ component gene XRCC4” value (XRCC4 [1]) was “most effective” and the “inhibition of XRCC4 expression by Western blot” value (XRCC4 [2]) was “effectively reduced expression of the target genes”.

In the case of “GAGCUGGGAGUUCAGGUUCA (listed as RNA, chemistry not given here) [shDclre1c-12]”, the “Dclre1c mRNA level” value (Dclre1c [3]) is reported as “greatest decrease”.

With “GCACCGCAAGCCUUCUAUA (listed as RNA, chemistry not given here) [shDclre1c-3]” the “deletion level (efficiency of large-scale deletion of E51)” value (Dystrophin Exon 51, E51 [4]) was “highest deletion level”, the “DCLRE1C mRNA level” value (DCLRE1C [5]) was “most effectively downregulates DCLRE1C expression” and the “mapped reads in the deleted region (CPM)” value (Dystrophin Exon 51, E51 [6]) was “decreased”.

In the case of “GCAGAAUUCUUCCCAGUCAUUCAAGAGAUGACUGGGAAGAAUUCUGC (short hairpin RNA, further chemistry not given here) [shDCLRE1C5]”, the “mRNA expression inhibition efficiency (DCLRE1C)” value (DCLRE1C [7]) is reported as “highest mRNA expression inhibition efficiency”.

With “GCAGAGCUCUCCUUUCACA (sense GCAGAGCUCUCGUUUCACA; part of shRNA hairpin, further chemistry not given here) [DCLRE1C-3]” the “mRNA expression of NHEJ component gene DCLRE1C” value (DCLRE1C [8]) was “most effective”, the “inhibition of DCLRE1C (Artemis) expression by Western blot” value (Artemis) was “effectively reduced expression of the target genes” and the “large-scale deletion efficiency (relative intensity of deletion band vs non-deletion band)” value (Dystrophin Exon 51, E51 [9]) was “most effective”.

In the case of “GCAGAGCUCUCGUUUCACAUUCAAGAGAUGUGAAACGAGAGCUCUGC (short hairpin RNA, further chemistry not given here) [shDCLRE1C3]”, the “mRNA expression inhibition efficiency (DCLRE1C)” value (DCLRE1C [7]) is reported as “highest mRNA expression inhibition efficiency”.

In the case of “GCAGCAUUGUGCAGAUACA (listed as RNA, chemistry not given here) [XRCC6-1]”, the “mRNA expression of NHEJ component gene XRCC6” value (XRCC6) is reported as “most effective” and the “inhibition of XRCC6 (KU70) expression by Western blot” value (KU70) is reported as “effectively reduced expression of the target genes”.

For “GCAUGAGUCUGGCAUUACA (listed as RNA, chemistry not given here) [XLF-1]”, the “mRNA expression of NHEJ component gene XLF” value (XLF [10]) was “most effective” and the “inhibition of XLF expression by Western blot” value (XLF [11]) was “effectively reduced expression of the target genes”.

With “GCAUGAUCCUUCUGUAGGA (listed as RNA, chemistry not given here) [LIG4-5]” the “mRNA expression of NHEJ component gene LIG4” value (LIG4) was “most effective” and the “inhibition of LIG4 (DNA ligase IV) expression by Western blot” value (DNA ligase IV) was “effectively reduced expression of the target genes”.

For “GGACAAAGCUGACUACAGAUUCAAGAGAUCUGUAGUCAGCUUUGUCC (short hairpin RNA, further chemistry not given here) [shDCLRE1C2]”, the “mRNA expression inhibition efficiency (DCLRE1C)” value (DCLRE1C [7]) was “highest mRNA expression inhibition efficiency”.

In the case of “GGAGCUGAUUGUAGCAACA (listed as RNA, chemistry not given here) [ATM-3]”, the “mRNA expression of NHEJ component gene ATM” value (ATM1 [12]) is reported as “most effective” and the “inhibition of ATM expression by Western blot” value (ATM1 [13]) is reported as “effectively reduced expression of the target genes”.
